Earlier results in patent publication US20050202566A1, “Device and method for determining parameters” (priority 2002, published 2005).

Tested on: thrombus formation
Conditions: ex vivo flow models using whole blood; with increasing shear

| Structure (SMILES) | inhibition of thrombus formation as a function of shear |
| --- | --- |
| O=C(O)COc1ccc(CCNS(=O)(=O)c2ccccc2)s1 [Linotroban] | increasingly inhibit thrombus formation |
| CC(=O)Oc1ccccc1C(=O)O [aspirin] | increasingly inhibit thrombus formation |
